Data from PubChem BioAssay (NCI).
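The concentration for 50% growth inhibition is given as GI50. TGI marks complete inhibition of growth.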

Experiments:
Test in all cases: growth of human tumour cells (NCI), 384-well format
[1] = tested on: SNB-19 CNS
[2] = tested on: NCI-H460 NSCLC
[3] = tested on: CCRF-CEM leukemia
[4] = tested on: K-562 leukemia
[5] = tested on: SW-620 colon
[6] = tested on: CAKI-1 renal
[7] = tested on: HOP-92 NSCLC
[8] = tested on: TK-10 renal
[9] = tested on: OVCAR-8 ovarian
[10] = tested on: SN12C renal
[11] = tested on: HCT-116 colon
[12] = tested on: SK-MEL-2 melanoma
[13] = tested on: M14 melanoma
[14] = tested on: KM12 colon
[15] = tested on: U251 glioblastoma
[16] = tested on: NCI-H226 lung
[17] = tested on: UACC-257 melanoma
[18] = tested on: HL-60(TB) leukemia
[19] = tested on: COLO 205 colon
[20] = tested on: HCT-15 colon
[21] = tested on: OVCAR-5 ovarian
[22] = tested on: SK-MEL-5 melanoma
[23] = tested on: BT-549 breast
[24] = tested on: OVCAR-3 ovarian
[25] = tested on: SF-268 CNS
[26] = tested on: SF-295 CNS
[27] = tested on: MCF7 breast
[28] = tested on: SR leukemia
[29] = tested on: SK-MEL-28 melanoma
[30] = tested on: MDA-MB-231 breast
[31] = tested on: DU-145 prostate
[32] = tested on: MOLT-4 leukemia
[33] = tested on: SK-OV-3 ovarian
[34] = tested on: A549 NSCLC
[35] = tested on: MDA-MB-468 breast
[36] = tested on: MDA-MB-435 melanoma
[37] = tested on: PC-3 prostate
[38] = tested on: T-47D breast
[39] = tested on: IGROV1 ovarian
[40] = tested on: 786-0 renal
[41] = tested on: NCI-H23 lung
[42] = tested on: HOP-62 NSCLC
[43] = tested on: UO-31 renal
[44] = tested on: MALME-3M melanoma
[45] = tested on: ACHN renal
[46] = tested on: RXF 393 renal
[47] = tested on: RPMI-8226 leukemia
[48] = tested on: OVCAR-4 ovarian
[49] = tested on: UACC-62 melanoma
[50] = tested on: SF-539 CNS
[51] = tested on: HCC-2998 colon
[52] = tested on: A498 renal
[53] = tested on: NCI-H322M lung
[54] = tested on: LOX IMVI melanoma
[55] = tested on: NCI/ADR-RES ovarian
[56] = tested on: HT29 colon
[57] = tested on: NCI-H522 lung

CNC[C@@H](NC(=O)c1ccc(-c2nc([C@H]3CC[C@H](O)[C@@H](F)C3)cnc2N)cc1F)c1cc(F)cc(Br)c1 showed a GI50 [1] of 19.1 µM, a TGI [1] of 33.3 µM and a GI50 [2] of 18.8 µM. It also gave a TGI [2] of 33.2 µM, a GI50 [3] of 16.8 µM and a TGI [3] of 30.5 µM. The GI50 [4] was 16.8 µM, the TGI [4] was 30.5 µM and the GI50 [5] was 20.6 µM. The TGI [5] was 35.1 µM, the GI50 [6] was 16.9 µM and the TGI [6] was 30.9 µM. It also gave a GI50 [7] of 16.8 µM, a TGI [7] of 30.6 µM and a GI50 [8] of 17 µM. The TGI [8] was 31.4 µM, the GI50 [9] was 18.9 µM and the TGI [9] was 33.1 µM. The GI50 [10] was 18.5 µM, the TGI [10] was 32.5 µM and the GI50 [11] was 16.8 µM. The TGI [11] was 30.6 µM, the GI50 [12] was 20.5 µM and the TGI [12] was 34.8 µM. The GI50 [13] was 18.2 µM, the TGI [13] was 32.2 µM and the GI50 [14] was 17.5 µM. It also gave a TGI [14] of 31.5 µM, a GI50 [15] of 17.5 µM and a TGI [15] of 31.4 µM. It also gave a GI50 [16] of 18.6 µM, a TGI [16] of 33 µM and a GI50 [17] of 14.6 µM. It also gave a TGI [17] of 27.8 µM, a GI50 [18] of 13.9 µM and a TGI [18] of 26.9 µM. The GI50 [19] was 16.4 µM, the TGI [19] was 30.1 µM and the GI50 [20] was 19.4 µM. For the same molecule, the TGI [20] was 33.7 µM, the GI50 [21] was 17.5 µM and the TGI [21] was 33.5 µM. It also gave a GI50 [22] of 20.8 µM, a TGI [22] of 35.2 µM and a GI50 [23] of 13.7 µM. For the same molecule, the TGI [23] was 26.6 µM, the GI50 [24] was 18 µM and the TGI [24] was 32 µM. The GI50 [25] was 17.2 µM, the TGI [25] was 31.1 µM and the GI50 [26] was 18.5 µM. The TGI [26] was 32.6 µM, the GI50 [27] was 18 µM and the TGI [27] was 31.9 µM. For the same molecule, the GI50 [28] was 12.1 µM, the TGI [28] was 24.5 µM and the GI50 [29] was 18.8 µM. The TGI [29] was 33 µM, the GI50 [30] was 20.1 µM and the TGI [30] was 34.4 µM. It also gave a GI50 [31] of 18.5 µM, a TGI [31] of 32.8 µM and a GI50 [32] of 17.7 µM. For the same molecule, the TGI [32] was 31.6 µM, the GI50 [33] was 16.9 µM and the TGI [33] was 30.7 µM. For the same molecule, the GI50 [34] was 17 µM, the TGI [34] was 31.1 µM and the GI50 [35] was 18.3 µM. The TGI [35] was 32.2 µM, the GI50 [36] was 20.3 µM and the TGI [36] was 34.7 µM. It also gave a GI50 [37] of 17.6 µM, a TGI [37] of 31.5 µM and a GI50 [38] of 22.5 µM. It also gave a TGI [38] of 37.2 µM, a GI50 [39] of 17.9 µM and a TGI [39] of 34.5 µM. The GI50 [40] was 15 µM, the TGI [40] was 28.3 µM and the GI50 [41] was 19.4 µM. The TGI [41] was 36.9 µM, the GI50 [42] was 17.8 µM and the TGI [42] was 31.7 µM. It also gave a GI50 [43] of 1.39 µM, a TGI [43] of 2.87 µM and a GI50 [44] of 17.1 µM. The TGI [44] was 30.9 µM, the GI50 [45] was 16.9 µM and the TGI [45] was 30.6 µM. It also gave a GI50 [46] of 15.3 µM, a TGI [46] of 28.7 µM and a GI50 [47] of 12.4 µM. For the same molecule, the TGI [47] was 24.9 µM, the GI50 [48] was 19.9 µM and the TGI [48] was 36.1 µM. The GI50 [49] was 16.7 µM, the TGI [49] was 30.5 µM and the GI50 [50] was 17.2 µM. It also gave a TGI [50] of 31 µM, a GI50 [51] of 17.2 µM and a TGI [51] of 31 µM. For the same molecule, the GI50 [52] was 16.6 µM, the TGI [52] was 30.3 µM and the GI50 [53] was 18.7 µM. For the same molecule, the TGI [53] was 33.4 µM, the GI50 [54] was 23.1 µM and the TGI [54] was 37.7 µM. It also gave a GI50 [55] of 48.5 µM, a TGI [55] of over 100 µM and a GI50 [56] of 16.1 µM. For the same molecule, the TGI [56] was 29.9 µM, the GI50 [57] was 18.2 µM and the TGI [57] was 32.1 µM.
